Test results as given in patent US8329645B2, “Polymyxin derivatives and uses thereof” (priority 2008, dated 2012).
≈ marks a conversion by molar mass, not a printed value. Where a SMILES comes first, the peptide text is derived from it. Bridges are numbered along the chain shown (N, C = ends). [ ]: non-standard residue; d: D form. The star is where a group is joined. Octanoyl = CCCCCCCC(=O)*; Dab = NCC[C@H](N)C(=O)O; Abu = CC[C@H](N)C(=O)O

What was measured:
[1] = Two-week intravenous toxicity study in young rats; type: in vivo
Method: Toxicity in young rats (weighing approx. 150 g in the beginning of the study) was determined by administering doses (1, 2, 4, 8, 16, and 32 mg/kg per day) of NAB7061 as well as the control compound polymyxin B intravenously twice (2) a day for two weeks. A group of ten (10) rats was studied for each dosage regimen. Clinical observations were made daily, the body weight measured twice weekly, and the food consumption twice weekly. In the end of week 2, all animals were sacrificed.
Histopathology of kidneys was performed for each animals and histopathology of all tissues was performed in three high-dose groups receiving NAB7061.

[2] = test system: A. baumannii ATCC 19606; conditions: ATCC 19606
Method: (§1) Polymyxin B sulfate (Sigma-Aldrich, St. Louis, Mo., USA) was used as a control. […] The bacterial test strains originated from ATCC (10 strains), CCUG (11 strains), and NCTC (3 strains). Fourteen (14) strains (the F-strains) were purchased from Mobidiag Ltd., Helsinki, Finland.
(§2) The inocula were prepared by adjusting the bacterial suspensions to a density equivalent to OD546 nm˜0.3 (˜10^8 CFU/ml˜0.5 McFarland) the yeast suspension to a density equivalent to OD546 nm˜0.75 (˜2×10^7 CFU/ml)._The suspensions were diluted to 10^7 CFU/ml. The plates were inoculated by using a Denley Multipoint Inoculator, 1 μl per spot corresponding to approx. 10^4 CFU/spot. Plates were incubated for 16-20 hours at 35° C.

[3] = test system: A. baumannii F263; conditions: F263
Method: as §1, §2

[4] = test system: A. baumannii F264; conditions: F264
Method: as §1, §2

[5] = test system: C. freundii ATCC 8090; conditions: ATCC 8090
Method: as §1, §2

[6] = test system: E. cloacae ATCC 23355; conditions: ATCC 23355
Method: as §1, §2

[7] = test system: E. cloacae CCUG 52947; conditions: CCUG 52947
Method: as §1, §2

[8] = test system: E. cloacae F230; conditions: F230
Method: as §1, §2

[9] = test system: E. cloacae F231; conditions: F231
Method: as §1, §2

[10] = test system: E. cloacae F232; conditions: F232
Method: as §1, §2

[11] = test system: E. coli ATCC 25922; conditions: ATCC 25922
Method: as §1, §2

[12] = test system: E. coli CCUG 41422
Method: as §1, §2

[13] = test system: E. coli CCUG 41424; conditions: CCUG 41424
Method: as §1, §2

[14] = test system: E. coli CCUG 41425; conditions: CCUG 41425
Method: as §1, §2

[15] = test system: E. coli CCUG 41427; conditions: CCUG 41427
Method: as §1, §2

[16] = test system: E. coli CCUG 41429; conditions: CCUG 41429
Method: as §1, §2

[17] = test system: E. coli CCUG 41432; conditions: CCUG 41432
Method: as §1, §2

[18] = test system: E. coli F10; conditions: F10
Method: as §1, §2

[19] = test system: E. coli F19; conditions: F19
Method: as §1, §2

[20] = test system: E. coli F8; conditions: F8
Method: as §1, §2

[21] = test system: E. coli F9; conditions: F9
Method: as §1, §2

[22] = test system: E. coli IH3080; conditions: IH3080
Method: as §1, §2

[23] = test system: E. coli NCTC 13351; conditions: NCTC 13351
Method: as §1, §2

[24] = test system: E. coli NCTC 13352; conditions: NCTC 13352
Method: as §1, §2

[25] = test system: E. coli NCTC 13353; conditions: NCTC 13353
Method: as §1, §2

[26] = test system: K. oxytoca ATCC 13182; conditions: ATCC 13182
Method: as §1, §2

[27] = test system: K. oxytoca CCUG 51683; conditions: CCUG 51683
Method: as §1, §2

[28] = test system: K. pneumoniae ATCC 13883; conditions: ATCC 13883
Method: as §1, §2

[29] = test system: K. pneumoniae CCUG 45421; conditions: CCUG 45421
Method: as §1, §2

[30] = test system: K. pneumoniae F136; conditions: F136
Method: as §1, §2

[31] = test system: K. pneumoniae F144; conditions: F144
Method: as §1, §2

[32] = test system: K. pneumoniae F145; conditions: F145
Method: as §1, §2

[33] = test system: P. aeruginosa ATCC 27853; conditions: ATCC 27853
Method: as §1, §2

[34] = test system: P. aeruginosa CCUG 51971
Method: as §1, §2

[35] = test system: P. aeruginosa F58; conditions: F58
Method: as §1, §2

[36] = test system: S. aureus ATCC 25923; conditions: ATCC 25923
Method: as §1, §2

[37] = test system: S. maltophilia ATCC 17444; conditions: ATCC 17444
Method: as §1, §2

[38] = test system: S. marcescens ATCC 8100; conditions: ATCC 8100
Method: as §1, §2

With `CCCCCCCC(=O)N[C@H](C(=O)N[C@@H](CC)C(=O)N[C@H]1CCNC(=O)[C@H]([C@@H](C)O)NC(=O)[C@H](CCN)NC(=O)[C@H](CCN)NC(=O)[C@H](CC(C)C)NC(=O)[C@@H](Cc2ccccc2)NC(=O)[C@H](CCN)NC1=O)[C@@H](C)O` [NAB 7061, OA-Thr-Abu-cy[Dab-Dab-DPhe-Leu-Dab-Dab-Thr-]] (Octanoyl-T[Abu][Dab][Dab][dF]L[Dab][Dab]T; lactam 3-C) the “rise of blood urea nitrogen (BUN) versus control or low dose group” value ([1]; 16 mg/kg per day, end of the study) was “no such a rise was found”, the “lowest dose that negatively influenced the body weight gain” value ([1]; rats, intravenously twice a day for two weeks) was 8 mg/kg per day and the “general pathology and histopathology of organs and kidneys” value ([1]; rats, two weeks) was “No NAB7061-related pathological findings were found”. It also gave an MIC [2] greater than 32 µg/mL, an MIC [3] greater than 32 µg/mL and an MIC [4] greater than 32 µg/mL. The MIC [5] was 16 µg/mL (≈ 14.9 µM), the MIC [6] was 32 µg/mL (≈ 29.8 µM) and the MIC [7] was greater than 32 µg/mL. The MIC [8] was greater than 32 µg/mL, the MIC [9] was 32 µg/mL (≈ 29.8 µM) and the MIC [10] was greater than 32 µg/mL. For the same compound, the MIC [11] was greater than 32 µg/mL, the MIC [12] was greater than 32 µg/mL and the MIC [13] was 32 µg/mL (≈ 29.8 µM). For the same compound, the MIC [14] was greater than 32 µg/mL, the MIC [15] was greater than 32 µg/mL and the MIC [16] was 16 µg/mL (≈ 14.9 µM). It also gave an MIC [17] greater than 32 µg/mL, an MIC [18] greater than 32 µg/mL and an MIC [19] of 32 µg/mL (≈ 29.8 µM). The MIC [20] was greater than 32 µg/mL, the MIC [21] was greater than 32 µg/mL and the MIC [22] was greater than 32 µg/mL. It also gave an MIC [23] greater than 32 µg/mL, an MIC [24] of 32 µg/mL (≈ 29.8 µM) and an MIC [25] greater than 32 µg/mL. It also gave an MIC [26] of 32 µg/mL (≈ 29.8 µM), an MIC [27] of 32 µg/mL (≈ 29.8 µM) and an MIC [28] greater than 32 µg/mL. The MIC [29] was greater than 32 µg/mL, the MIC [30] was greater than 32 µg/mL and the MIC [31] was greater than 32 µg/mL. It also gave an MIC [32] greater than 32 µg/mL, an MIC [33] greater than 32 µg/mL and an MIC [34] greater than 32 µg/mL. It also gave an MIC [35] greater than 32 µg/mL, an MIC [36] greater than 32 µg/mL and an MIC [37] greater than 32 µg/mL. It also gave an MIC [38] greater than 32 µg/mL.
